Data reported in US10508120B2, “TYK2 inhibitors and uses thereof” (Nimbus Lakshmi, Inc., priority 2017, dated 2019).
Read-outs that look alike come from different tables or passages of the source.

Experiments:
[1] = target: JAK2/JAK2 homdimeric complex (Homo sapiens (Human), UniProt O60674); experiment: GM-CSF Induced pSTAT5 in Human PBMC; format: cell-based; settings: GM-CSF 5 ng/mL for 20 minutes, pSTAT5 by MSD, read-out: PBMC_GMCSF_pSTAT5 IC50
[2] = target: human TYK2 (JH2domain-pseudokinase) (Homo sapiens (Human), UniProt P29597); experiment: TYK2 JH2 Domain Binding Assay (KINOMEscan)
Chain of human TYK2 (JH2domain-pseudokinase) (P29597 556-888): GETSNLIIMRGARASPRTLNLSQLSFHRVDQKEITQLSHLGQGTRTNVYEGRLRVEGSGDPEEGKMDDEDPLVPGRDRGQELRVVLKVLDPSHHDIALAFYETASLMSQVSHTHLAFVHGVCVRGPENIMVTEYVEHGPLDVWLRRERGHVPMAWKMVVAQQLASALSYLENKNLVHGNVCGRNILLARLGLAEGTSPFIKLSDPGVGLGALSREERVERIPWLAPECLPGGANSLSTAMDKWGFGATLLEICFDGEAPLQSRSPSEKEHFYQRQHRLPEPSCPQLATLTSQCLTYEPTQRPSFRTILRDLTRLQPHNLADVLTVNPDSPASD
Summary of the method: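 Displacement of a DNA-tagged TYK2 JH2 fusion (human, aa G556–D888, HEK293 extract, <0.1 nM) from ligand-coated beads over 1 h at RT; binding buffer PBS/0.05% Tween 20/10 mM DTT/0.1% BSA.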

Tyk2 kinase domain (DH1) = Tyk2 kinase domain (DH1) (Homo sapiens (Human), UniProt P29597); experiment: Tyk2 Radioactive Kinase Assay; format: biochemical; settings: for inhibition at 10 µM: read-out: Tyk2 JH1% Inhibition @ 10 μM
Chain of Tyk2 kinase domain (DH1) (P29597 897-1176): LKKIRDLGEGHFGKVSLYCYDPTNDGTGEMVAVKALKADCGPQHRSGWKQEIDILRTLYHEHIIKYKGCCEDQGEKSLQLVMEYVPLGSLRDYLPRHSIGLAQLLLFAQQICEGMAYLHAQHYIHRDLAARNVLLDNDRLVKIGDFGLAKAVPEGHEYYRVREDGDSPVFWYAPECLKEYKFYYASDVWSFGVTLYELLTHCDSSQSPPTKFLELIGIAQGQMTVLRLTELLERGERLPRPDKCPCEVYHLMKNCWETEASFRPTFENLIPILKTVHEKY
Summary of the method: (§1)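 Values are single-concentration percent inhibition figures. They were obtained with 10 μM compound in a radioactivity-based kinase assay run separately on each enzyme.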

JAK2 kinase domain (JH1) = JAK2 kinase domain (JH1) (Homo sapiens (Human), UniProt O60674); experiment: JAK2 Radioactive Kinase Assay; format: biochemical; settings: for inhibition at 10 µM: read-out: JAK2 JH1% Inhibition @ 10 μM
Chain of JAK2 kinase domain (JH1) (O60674 849-1124): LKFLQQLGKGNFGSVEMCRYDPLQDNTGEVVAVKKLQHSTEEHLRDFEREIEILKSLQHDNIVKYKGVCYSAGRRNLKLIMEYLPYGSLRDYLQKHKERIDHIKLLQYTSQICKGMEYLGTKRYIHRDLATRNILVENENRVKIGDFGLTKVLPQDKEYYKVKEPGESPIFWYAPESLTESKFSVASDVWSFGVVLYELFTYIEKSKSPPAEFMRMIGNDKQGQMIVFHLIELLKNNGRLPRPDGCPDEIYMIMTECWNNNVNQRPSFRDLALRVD
Summary of the method: as §1

Chain of JAK2/JAK2 homdimeric complex (O60674 whole entry, the tested form may be a part): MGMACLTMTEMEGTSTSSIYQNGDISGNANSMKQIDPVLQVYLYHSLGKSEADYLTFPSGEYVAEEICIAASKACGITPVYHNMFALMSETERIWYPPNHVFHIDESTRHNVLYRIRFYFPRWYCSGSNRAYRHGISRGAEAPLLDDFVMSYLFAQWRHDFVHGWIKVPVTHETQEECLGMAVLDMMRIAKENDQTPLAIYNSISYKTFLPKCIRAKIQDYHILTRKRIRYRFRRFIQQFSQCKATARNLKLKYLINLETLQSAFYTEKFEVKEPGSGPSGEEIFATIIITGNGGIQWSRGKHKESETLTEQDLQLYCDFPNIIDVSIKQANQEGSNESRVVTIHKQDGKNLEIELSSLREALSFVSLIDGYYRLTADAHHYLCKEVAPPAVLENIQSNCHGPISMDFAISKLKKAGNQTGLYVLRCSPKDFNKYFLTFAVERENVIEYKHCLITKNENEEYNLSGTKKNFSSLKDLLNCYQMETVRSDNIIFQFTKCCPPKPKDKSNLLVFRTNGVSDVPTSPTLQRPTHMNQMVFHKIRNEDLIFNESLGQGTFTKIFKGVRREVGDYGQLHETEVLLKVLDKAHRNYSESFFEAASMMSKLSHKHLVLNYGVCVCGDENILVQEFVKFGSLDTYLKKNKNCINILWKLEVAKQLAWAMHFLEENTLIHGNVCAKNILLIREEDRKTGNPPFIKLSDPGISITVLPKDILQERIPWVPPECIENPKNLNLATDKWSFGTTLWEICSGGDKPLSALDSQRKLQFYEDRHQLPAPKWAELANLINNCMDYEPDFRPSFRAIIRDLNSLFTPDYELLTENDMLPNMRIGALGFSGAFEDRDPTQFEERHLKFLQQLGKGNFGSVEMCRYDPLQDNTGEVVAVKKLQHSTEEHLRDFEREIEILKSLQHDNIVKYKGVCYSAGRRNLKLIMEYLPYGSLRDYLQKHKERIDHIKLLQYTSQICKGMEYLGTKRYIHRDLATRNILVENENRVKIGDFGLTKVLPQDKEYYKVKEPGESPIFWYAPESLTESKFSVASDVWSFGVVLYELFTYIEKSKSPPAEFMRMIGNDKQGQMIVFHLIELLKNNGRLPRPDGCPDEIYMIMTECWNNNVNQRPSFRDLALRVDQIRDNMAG
Chain of JAK2/JAK2 homdimeric complex (P32927 17-897 partner): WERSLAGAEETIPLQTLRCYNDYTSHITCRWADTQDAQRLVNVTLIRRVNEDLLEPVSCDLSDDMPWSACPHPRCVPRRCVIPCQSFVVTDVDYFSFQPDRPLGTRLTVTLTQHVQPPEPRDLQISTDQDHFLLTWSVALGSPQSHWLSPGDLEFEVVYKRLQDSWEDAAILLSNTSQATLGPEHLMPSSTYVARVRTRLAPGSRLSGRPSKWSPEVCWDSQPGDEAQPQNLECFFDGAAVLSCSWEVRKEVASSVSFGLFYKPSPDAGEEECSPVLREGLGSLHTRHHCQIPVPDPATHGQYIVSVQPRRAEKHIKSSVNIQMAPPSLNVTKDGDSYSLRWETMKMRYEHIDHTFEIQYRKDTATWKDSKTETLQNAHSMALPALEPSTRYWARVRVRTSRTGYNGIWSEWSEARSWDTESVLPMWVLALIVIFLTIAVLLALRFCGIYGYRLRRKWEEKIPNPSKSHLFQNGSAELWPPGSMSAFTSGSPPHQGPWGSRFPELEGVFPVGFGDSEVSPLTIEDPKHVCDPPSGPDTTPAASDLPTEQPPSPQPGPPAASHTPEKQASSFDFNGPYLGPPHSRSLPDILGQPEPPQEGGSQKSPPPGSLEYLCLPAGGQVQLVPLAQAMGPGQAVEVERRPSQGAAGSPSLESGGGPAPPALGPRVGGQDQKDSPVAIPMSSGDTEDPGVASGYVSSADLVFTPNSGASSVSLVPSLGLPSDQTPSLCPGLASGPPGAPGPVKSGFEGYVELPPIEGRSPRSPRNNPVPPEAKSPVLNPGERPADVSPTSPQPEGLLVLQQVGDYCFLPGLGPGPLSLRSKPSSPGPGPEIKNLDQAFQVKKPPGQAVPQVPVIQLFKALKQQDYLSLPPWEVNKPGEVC

SMILES	IC50 [1] [nM]	Kd [2] [nM]	inhibition at 10 µM (Tyk2 kinase domain (DH1); compound at 10 μM, ATP 10 μM) [%]	inhibition at 10 µM (JAK2 kinase domain (JH1); compound at 10 μM, ATP 10 μM) [%]	other results
[2H]C([2H])([2H])Oc1ncccc1Nc1cc(NC)n2ncc(C(=O)NC3CC3)c2n1 [I-175, N-cyclopropyl-5-((2-(methoxy-d3)pyridin-3-yl)amino)-7-(methylamino) pyrazolo[1,5-a]pyrimidine-3-carboxamide]	> 12500				
CNc1cc(Nc2cccn(-c3cccnc3)c2=O)nc2c(C(=O)N[C@H]3CC[C@@H]3OC)cnn12 [I-864]	> 50000				
CNc1cc(Nc2cccn(-c3ccc(F)cn3)c2=O)nc2c(C(=O)N[C@@H]3CC[C@H]3OC)cnn12 [I-817]	> 2500				
CNc1cc(Nc2cccnc2OC)nc2c(C(=O)NC3CC3)cnn12 [I-8]	> 50000				
CNc1cc(Nc2cccn(-c3ncccc3F)c2=O)nc2c(C(=O)NC3CC3)cnn12 [I-143]	> 50000				
CNc1cc(Nc2cccn(C3CCOCC3)c2=O)nc2c(C(=O)N[C@H]3CC[C@@H]3OC)cnn12 [I-1014]	> 50000				
CNc1cc(Nc2cccn(-c3ccc(F)cc3)c2=O)nc2c(C(=O)NC3CC3)cnn12 [I-107, N-cyclopropyl-5-((1-(4-fluorophenyl)-2-oo-1,2-dihydropyridin-3-yl)amino)-7-(methylamino)pyrazolo[1,5-a]pyrimidine-3-carboxamide]	> 2500				
CNc1cc(Nc2cccn(-c3nc(C)co3)c2=O)nc2c(C(=O)N[C@H]3CC[C@@H]3OC)cnn12 [I-975]	> 50000				
CNc1cc(Nc2cccn([C@H]3CC[C@H](OC)CC3)c2=O)nc2c(C(=O)N[C@@H]3CC[C@H]3OC)cnn12 [I-1378]	> 50000				
CNc1cc(Nc2cccn([C@H]3CC[C@H](OC)CC3)c2=O)nc2c(C(=O)N[C@H]3CC[C@@H]3OC)cnn12 [I-1062]	> 50000				
CNc1cc(Nc2cccn(C(C)C)c2=O)nc2c(C(=O)N[C@@H]3CC[C@H]3OC)cnn12 [I-917]	> 50000				
CNc1cc(Nc2cc(C)cc(C)c2)nc2c(C(=O)NC3CC3)cnn12 [I-1, N-cyclopropyl-5-((3,5-dimethylphenyl)amino)-7-(methylamino)pyrazolo[1,5-a]pyrimidine-3-carboxamide]	> 50000				
CNc1cc(Nc2cccn(-c3nc(C)co3)c2=O)nc2c(C(=O)N[C@H]3CC[C@@H]3OC)cnn12 [I-890]	> 12500				
CNc1cc(Nc2cccn(C(C)C)c2=O)nc2c(C(=O)N[C@H]3CC[C@@H]3OC)cnn12 [I-980]	> 50000				
CNc1cc(Nc2cccn(-c3ccc(F)cn3)c2=O)nc2c(C(=O)N[C@H]3CC[C@@H]3OC)cnn12 [I-926]	> 2500				
CNc1cc(Nc2cccn(-c3cnc(C)o3)c2=O)nc2c(C(=O)N[C@@H]3CC[C@H]3OC)cnn12 [I-895]	> 50000				
CNc1cc(Nc2cccn(-c3ncco3)c2=O)nc2c(C(=O)N[C@@H]3CC[C@H]3OC)cnn12 [I-1398]	> 50000				
CNc1cc(Nc2cccn(C(C)C)c2=O)nc2c(C(=O)NC3CC3)cnn12 [I-394]		0.2 to 1	< 50	< 50	
CNc1cc(Nc2cccn(-c3cnn(C[C@H]4CCOC4)c3)c2=O)nc2c(C(=O)NC3CC3)cnn12 [I-601]		< 0.2	< 50	< 50	
CC(C)Oc1ncccc1Nc1cc(N)n2ncc(C(N)=O)c2n1 [I-77]		0.2 to 1	< 50	< 50	

SMILES	IC50 [1] [nM]	Kd [2] [nM]	inhibition at 10 µM (Tyk2 kinase domain (DH1); compound at 10 μM, ATP 10 μM) [%]	inhibition at 10 µM (JAK2 kinase domain (JH1); compound at 10 μM, ATP 10 μM) [%]	other results
CNc1cc(Nc2cccn(-c3ccnc(C)n3)c2=O)nc2c(C(=O)NC3CC3)cnn12 [I-125]		< 0.2	< 50	< 50	
CNc1cc(Nc2cccn([C@@H]3CCC[C@@H](O)C3)c2=O)nc2c(C(=O)N[C@@H]3CC[C@H]3OC)cnn12 [I-1130]		< 0.2			inhibition at 10 µM (Tyk2 kinase domain (DH1); 10 μM compound, 10 μM ATP): < 50%; inhibition at 10 µM (JAK2 kinase domain (JH1); 10 μM compound, 10 μM ATP): < 50%
CNc1cc(Nc2cccnc2C(C)(F)F)nc2c(C(=O)NC3CC3)cnn12 [I-297]		0.2 to 1	< 50	< 50	
CNc1cc(Nc2cccc(N3CCOC3=O)n2)nc2c(C(N)=O)cnn12 [I-65]		< 0.2	< 50	< 50	
CNc1cc(Nc2cc(Cl)cnc2OC(C)C)nc2c(C(=O)NC3CC3)cnn12 [I-150]		0.2 to 1	< 50	< 50	
CNc1cc(Nc2cccnc2OC2CCOCC2)nc2c(C(=O)N[C@H]3C[C@H]3F)cnn12 [I-174]		< 0.2	< 50	< 50	
CNc1cc(Nc2cccnc2OC)nc2c(C(N)=O)cnn12 [I-24]		< 0.2	< 50	< 50	
CNc1cc(Nc2cccn(-c3ccc(C)nc3)c2=O)nc2c(C(=O)NCC(C)(C)CO)cnn12 [I-767]		< 0.2	< 50	< 50	
CNc1cc(Nc2cccn([C@@H]3CCCC[C@@H]3OC)c2=O)nc2c(C(=O)N[C@H]3CC[C@@H]3OC)cnn12 [I-1127]		> 10			Tyk2 JH1% Inhibition @ 10 μM (Tyk2 kinase domain (DH1); 10 μM compound, 10 μM ATP): A (percent inhibition at 10 μM lower than 50); JAK2 JH1% Inhibition @ 10 μM (JAK2 kinase domain (JH1); 10 μM compound, 10 μM ATP): A (percent inhibition at 10 μM lower than 50)
CNc1cc(Nc2cccn(C3CCCCC3)c2=O)nc2c(C(=O)NC[C@H](C)CO)cnn12 [I-1120]		0.2 to 1			inhibition at 10 µM (Tyk2 kinase domain (DH1); 10 μM compound, 10 μM ATP): < 50%; inhibition at 10 µM (JAK2 kinase domain (JH1); 10 μM compound, 10 μM ATP): < 50%
CNc1cc(Nc2cccn([C@@H]3CCCOC3)c2=O)nc2c(C(=O)N[C@H]3COC[C@H]3O)cnn12 [I-754]		< 0.2	< 50	< 50	
CNc1cc(Nc2cccn(-c3nc(C)co3)c2=O)nc2c(C(=O)NC[C@@H](C)CO)cnn12 [I-737]		< 0.2	< 50	< 50	
CNc1cc(Nc2cccc(N3CCC4(CCCO4)CC3)n2)nc2c(C(=O)N[C@@H]3CC[C@@H]3O)cnn12 [I-720]		1 to 10			Tyk2 JH1% Inhibition @ 10 μM (Tyk2 kinase domain (DH1); compound at 10 μM, ATP 10 μM): A (percent inhibition at 10 μM lower than 50); JAK2 JH1% Inhibition @ 10 μM (JAK2 kinase domain (JH1); compound at 10 μM, ATP 10 μM): A (percent inhibition at 10 μM lower than 50)
CNc1cc(Nc2cccn([C@H]3CCC[C@H](OC)C3)c2=O)nc2c(C(=O)N[C@@H]3C[C@@H]3F)cnn12 [I-882]		< 0.2			inhibition at 10 µM (Tyk2 kinase domain (DH1); 10 μM compound, 10 μM ATP): < 50%; inhibition at 10 µM (JAK2 kinase domain (JH1); 10 μM compound, 10 μM ATP): < 50%
CNc1cc(Nc2cccn([C@H]3CC[C@H](O)CC3)c2=O)nc2c(C(=O)N[C@H]3C[C@H]3F)cnn12 [I-166]		< 0.2	< 50	< 50	
CNc1cc(Nc2cccn([C@H]3CCCC[C@H]3OC)c2=O)nc2c(C(=O)NC3CC3)cnn12 [I-1044]		0.2 to 1			inhibition at 10 µM (Tyk2 kinase domain (DH1); 10 μM compound, 10 μM ATP): < 50%; inhibition at 10 µM (JAK2 kinase domain (JH1); 10 μM compound, 10 μM ATP): < 50%
CNc1cc(Nc2cccn(C3CCN(CCF)CC3)c2=O)nc2c(C(=O)NCC3(CO)CC3)cnn12 [I-846]		< 0.2			inhibition at 10 µM (Tyk2 kinase domain (DH1); 10 μM compound, 10 μM ATP): < 50%; inhibition at 10 µM (JAK2 kinase domain (JH1); 10 μM compound, 10 μM ATP): < 50%
CNc1cc(Nc2cccc([C@H]3CCCOC3)n2)nc2c(C(=O)N[C@@H]3CC[C@@H]3O)cnn12 [I-604]		< 0.2	< 50	< 50	
CNc1cc(Nc2cccn([C@H]3CCCOC3)c2=O)nc2c(C(=O)N[C@@H]3COC[C@@H]3O)cnn12 [I-785]		< 0.2	< 50	< 50	
CNc1cc(Nc2cccn(C3CCOCC3)c2=O)nc2c(C(=O)NC[C@@H](C)CO)cnn12 [I-1032]		0.2 to 1			inhibition at 10 µM (Tyk2 kinase domain (DH1); 10 μM compound, 10 μM ATP): < 50%; inhibition at 10 µM (JAK2 kinase domain (JH1); 10 μM compound, 10 μM ATP): < 50%
